# According to the NIST ThermoML archive (doi:10.1016/j.jct.2018.08.033):
# ± gives the expanded uncertainty stated by the source.
# Legend:
# [1] = xn = mol fraction of the nth substance listed; details: 100 kPa, Liquid, Vibrating tube method, x2 = 0.9938
# [2] = Liquid; for mass density: 100 kPa, Vibrating tube method; for speed of sound: 101.33 kPa, Single path-length method
mass density ([2]; 283.15 K),speed of sound ([2]; 283.15 K),mass density ([2]; 288.15 K),speed of sound ([2]; 288.15 K),mass density ([2]; 293.15 K),speed of sound ([2]; 293.15 K),mass density ([2]; 298.15 K),speed of sound ([2]; 298.15 K),mass density ([2]; 303.15 K),speed of sound ([2]; 303.15 K),Structure (SMILES),mass density ([1]; 283.15 K),mass density ([1]; 288.15 K),mass density ([1]; 293.15 K),mass density ([1]; 298.15 K),mass density ([1]; 303.15 K)
–,–,–,–,–,–,–,–,–,–,CCCCOCCCN [3-butoxy-1-propanamine] + O,996.79 ± 1 kg/m3,995.99 ± 1 kg/m3,994.84 ± 1 kg/m3,993.43 ± 0.99 kg/m3,991.89 ± 0.99 kg/m3
1059.63 ± 1.4 kg/m3,1658.7 ± 2.4 m/s,1056.47 ± 1.4 kg/m3,1647.2 ± 2.4 m/s,1053.3 ± 1.4 kg/m3,1635.9 ± 2.4 m/s,1050.14 ± 1.4 kg/m3,1624.6 ± 2.4 m/s,1046.99 ± 1.4 kg/m3,1613.3 ± 2.4 m/s,"OCCCO [propan-1,3-diol]",–,–,–,–,–
